“Also recorded” adds a separate entry of the source. Read-outs that look alike come from different tables or passages of the source.
Legend:
[1] = system: rats trained to discriminate cocaine
[2] = molecular target: T1, dopamine transporter (high-affinity uptake of [^3 H]dopamine into striatal nerve endings) (Rattus norvegicus, UniProt P23977); assay: inhibition of high-affinity uptake of [^3 H]dopamine into striatal nerve endings (synaptosomes); assay type: biochemical
T1 construct: striatal nerve endings (synaptosomes); from tissue; host or cells: striatal nerve endings (synaptosomes)

[3] = system: rats trained to discriminate cocaine; assay: animal or person; conditions: Rattus norvegicus, ip, read-out: ED50 (50% cocaine-appropriate responding)
[4] = molecular target: dopamine transporter (Rattus norvegicus, UniProt P23977); assay: displacement of [^3 H]mazindol binding from rat striatal membranes
[5] = system: rats; assay: casual observation of animals treated with 2c; conditions: 0.8 mg/kg 2c; 24 hours following administration
[6] = 0.05 mg/kg, 30 min, mean ± S.E.M.
[7] = 0.05 mg/kg, 120 min, mean ± S.E.M.
[8] = 0.05 mg/kg, 240 min, mean ± S.E.M.
[9] = 0.1 mg/kg, 30 min, mean ± S.E.M.
[10] = 0.1 mg/kg, 120 min, mean ± S.E.M.
[11] = 0.1 mg/kg, 240 min, mean ± S.E.M.
[12] = 0.2 mg/kg, 30 min, mean ± S.E.M.
[13] = 0.2 mg/kg, 240 min, mean ± S.E.M.
[14] = 0.4 mg/kg, 30 min, mean ± S.E.M.
[15] = 0.4 mg/kg, 120 min, mean ± S.E.M.
[16] = 0.4 mg/kg, 240 min, mean ± S.E.M.
[17] = 0.8 mg/kg, 30 min, mean ± S.E.M.

dopamine transporter, sequence (P23977 whole entry): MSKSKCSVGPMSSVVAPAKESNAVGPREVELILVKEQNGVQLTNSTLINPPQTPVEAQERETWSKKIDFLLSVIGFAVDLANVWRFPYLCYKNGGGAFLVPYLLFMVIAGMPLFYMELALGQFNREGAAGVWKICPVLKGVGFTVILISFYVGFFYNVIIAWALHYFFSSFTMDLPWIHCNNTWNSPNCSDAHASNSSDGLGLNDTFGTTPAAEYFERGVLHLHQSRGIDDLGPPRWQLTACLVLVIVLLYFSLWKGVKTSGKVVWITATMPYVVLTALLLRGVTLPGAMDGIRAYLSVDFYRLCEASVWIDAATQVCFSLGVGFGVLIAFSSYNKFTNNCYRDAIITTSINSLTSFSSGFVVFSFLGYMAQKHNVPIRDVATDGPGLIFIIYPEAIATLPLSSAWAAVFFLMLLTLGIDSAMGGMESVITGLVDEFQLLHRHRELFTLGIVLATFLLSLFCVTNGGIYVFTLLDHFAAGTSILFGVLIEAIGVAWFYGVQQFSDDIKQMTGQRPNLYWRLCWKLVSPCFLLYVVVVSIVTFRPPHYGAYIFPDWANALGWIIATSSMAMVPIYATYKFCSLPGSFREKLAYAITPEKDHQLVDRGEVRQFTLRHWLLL
T1 sequence (P23977 whole entry): as above

Structure (SMILES): C=C[C@H]1[C@@H](c2ccc(Cl)cc2)C[C@@H]2CC[C@H]1N2C [Compound 2c, 3β-(4-Chlorophenyl)-2β-vinyltropane]
- n/N (animals completing 20 responses / tested) ([1]; 0.05 mg/kg, 30 min): 7/7
- % Drug responses [1, 6]: 19 ± 4%
- Rate (responses/min) [1, 6]: 29.6 ± 9 responses/min
- n/N (animals completing 20 responses / tested) ([1]; 0.05 mg/kg, 120 min): 7/7
- % Drug responses [1, 7]: 22 ± 14%
- Rate (responses/min) [1, 7]: 18.4 ± 6 responses/min
- n/N (animals completing 20 responses / tested) ([1]; 0.05 mg/kg, 240 min): 7/7
- % Drug responses [1, 8]: 14 ± 14%
- Rate (responses/min) [1, 8]: 28.3 ± 5 responses/min
- n/N (animals completing 20 responses / tested) ([1]; 0.1 mg/kg, 30 min): 7/7
- % Drug responses [1, 9]: 40 ± 17%
- Rate (responses/min) [1, 9]: 37.1 ± 6 responses/min
- n/N (animals completing 20 responses / tested) ([1]; 0.1 mg/kg, 120 min): 7/7
- % Drug responses [1, 10]: 75 ± 16%
- Rate (responses/min) [1, 10]: 25.7 ± 5 responses/min
- n/N (animals completing 20 responses / tested) ([1]; 0.1 mg/kg, 240 min): 7/7
- % Drug responses [1, 11]: 61 ± 17%
- Rate (responses/min) [1, 11]: 23.5 ± 4 responses/min
- n/N (animals completing 20 responses / tested) ([1]; 0.2 mg/kg, 30 min): 7/7
- % Drug responses [1, 12]: 83 ± 10%
- Rate (responses/min) [1, 12]: 26.2 ± 6 responses/min
- n/N (animals completing 20 responses / tested) ([1]; 0.2 mg/kg, 120 min): 7/7
- % Drug responses ([1]; 0.2 mg/kg, 120 min, mean): 100%
- Rate (responses/min) ([1]; 0.2 mg/kg, 120 min, mean ± S.E.M.): 46.8 ± 9 responses/min
- n/N (animals completing 20 responses / tested) ([1]; 0.2 mg/kg, 240 min): 7/7
- % Drug responses [1, 13]: 98 ± 1%
- Rate (responses/min) [1, 13]: 47.9 ± 10 responses/min
- n/N (animals completing 20 responses / tested) ([1]; 0.4 mg/kg, 30 min): 7/7
- % Drug responses [1, 14]: 99 ± 1%
- Rate (responses/min) [1, 14]: 52.8 ± 9 responses/min
- n/N (animals completing 20 responses / tested) ([1]; 0.4 mg/kg, 120 min, * intense stereotypic response, failed to complete session): 3/5
- % Drug responses [1, 15]: 72 ± 28%
- Rate (responses/min) [1, 15]: 24.9 ± 18 responses/min
- n/N (animals completing 20 responses / tested) ([1]; 0.4 mg/kg, 240 min, * intense stereotypic response, failed to complete session): 4/5
- % Drug responses [1, 16]: 91 ± 9%
- Rate (responses/min) [1, 16]: 23.6 ± 18 responses/min
- n/N (animals completing 20 responses / tested) ([1]; 0.8 mg/kg, 30 min): 7/7
- % Drug responses [1, 17]: 93 ± 5%
- Rate (responses/min) [1, 17]: 33.5 ± 9 responses/min
- % Drug responses ([1]; 0.8 mg/kg, 120 min): 95%
- Rate (responses/min) ([1]; 0.8 mg/kg, 120 min): 7.7 responses/min
- n/N (animals completing 20 responses / tested) ([1]; 0.8 mg/kg, 120 min, * intense stereotypic response, failed to complete session): 1/7
- % Drug responses ([1]; 0.8 mg/kg, 240 min): 100%
- n/N (animals completing 20 responses / tested) ([1]; 0.8 mg/kg, 240 min, * intense stereotypic response, failed to complete session): 3/7
- Rate (responses/min) ([1]; 0.8 mg/kg, 240 min, mean ± S.E.M.): 39.1 ± 1 responses/min
- complete cocaine-like responding ([1]; 0.2 and 0.4 mg/kg, 30 min injection period): induced complete cocaine-line responding in all animals
- response rates ([1]; in words, across test doses): stable across the different test doses of 2c, with the exception of the highest dose (0.8 mg/kg) of 2c which reduced response rates
- substitution for the cocaine cue / drug-appropriate responding ([1]; in words, dose-dependence over the tested doses): dose-dependent substitution for the cocaine cue
- duration of action ([1]; in words, injection interval 30-240 min): long duration of action
- IC50 [2]: 3.2 ± 0.6 nM
- ED50 ([3]; 0.5 h): 0.11 mg/kg
- ED50 ([3]; 2 h): 0.08 mg/kg
- ED50 ([3]; 4 h): 0.09 mg/kg
- IC50 [4]: 1.2 ± 0.3 nM
- potency compared with 1d ([4]; relative to ester counterpart 1d): slightly more potent than the "Win" type compound 1d; also recorded: slightly more potent than its ester counterpart 1d
- hyperactivity [5]: still hyperactive 24 hours following administration
